This is an account of results in ChEMBL document CHEMBL3997794, “Design and synthesis of benzodiazepine analogs as isoform-selective human lysine deacetylase inhibitors” (Eur J Med Chem, 2017).

The structures appear in SMILES notation. pIC50: −log10 of the molar value. A value given as a limit tells only on which side of the number the result lay.

Assay [1] has as its target T1, Protein deacetylase HDAC6 (Homo sapiens, UniProt Q9UBN7).
T1 sequence (Q9UBN7 whole entry): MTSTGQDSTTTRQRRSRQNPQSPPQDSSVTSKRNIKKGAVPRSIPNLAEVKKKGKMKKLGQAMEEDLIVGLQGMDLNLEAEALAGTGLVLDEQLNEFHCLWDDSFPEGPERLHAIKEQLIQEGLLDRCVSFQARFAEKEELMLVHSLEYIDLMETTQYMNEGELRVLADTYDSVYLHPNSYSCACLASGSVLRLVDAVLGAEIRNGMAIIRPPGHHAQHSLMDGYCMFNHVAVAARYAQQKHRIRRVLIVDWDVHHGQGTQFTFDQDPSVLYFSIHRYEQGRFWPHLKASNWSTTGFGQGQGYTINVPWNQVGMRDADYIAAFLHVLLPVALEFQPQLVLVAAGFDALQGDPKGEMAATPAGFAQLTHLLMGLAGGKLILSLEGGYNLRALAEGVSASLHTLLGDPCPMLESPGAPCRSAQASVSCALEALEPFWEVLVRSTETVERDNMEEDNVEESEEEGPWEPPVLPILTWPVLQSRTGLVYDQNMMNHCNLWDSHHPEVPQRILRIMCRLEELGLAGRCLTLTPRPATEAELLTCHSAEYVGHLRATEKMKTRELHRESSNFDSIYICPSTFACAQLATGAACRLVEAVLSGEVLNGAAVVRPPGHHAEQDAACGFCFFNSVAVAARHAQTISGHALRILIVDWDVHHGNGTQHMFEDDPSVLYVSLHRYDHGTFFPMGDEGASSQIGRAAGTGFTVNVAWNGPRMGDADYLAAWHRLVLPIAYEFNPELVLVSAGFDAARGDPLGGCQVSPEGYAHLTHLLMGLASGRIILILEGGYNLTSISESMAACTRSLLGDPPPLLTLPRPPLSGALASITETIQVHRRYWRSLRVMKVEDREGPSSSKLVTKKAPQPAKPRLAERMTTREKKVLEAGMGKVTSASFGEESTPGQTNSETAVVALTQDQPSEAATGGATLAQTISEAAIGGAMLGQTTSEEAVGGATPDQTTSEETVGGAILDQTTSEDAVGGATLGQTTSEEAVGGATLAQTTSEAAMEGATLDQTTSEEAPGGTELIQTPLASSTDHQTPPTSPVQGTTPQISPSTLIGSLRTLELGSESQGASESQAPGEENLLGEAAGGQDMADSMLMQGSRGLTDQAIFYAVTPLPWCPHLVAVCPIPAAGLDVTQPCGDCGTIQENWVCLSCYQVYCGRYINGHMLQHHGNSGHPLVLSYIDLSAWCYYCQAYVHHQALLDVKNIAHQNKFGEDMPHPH
Description: Inhibition of human KDAC6 using FITC-labeled histone H4 acetylated peptide as substrate after 60 mins by fluorescence assay.

Assay [2] has as its target T2, Histone deacetylase 1 (Homo sapiens, UniProt Q13547). Description: Inhibition of human KDAC1 using substrate A after 60 mins by fluorescence assay.
For assay [3], the target named is T3, Histone deacetylase 8 (Homo sapiens) (UniProt Q9BY41).
T3 sequence (whole entry): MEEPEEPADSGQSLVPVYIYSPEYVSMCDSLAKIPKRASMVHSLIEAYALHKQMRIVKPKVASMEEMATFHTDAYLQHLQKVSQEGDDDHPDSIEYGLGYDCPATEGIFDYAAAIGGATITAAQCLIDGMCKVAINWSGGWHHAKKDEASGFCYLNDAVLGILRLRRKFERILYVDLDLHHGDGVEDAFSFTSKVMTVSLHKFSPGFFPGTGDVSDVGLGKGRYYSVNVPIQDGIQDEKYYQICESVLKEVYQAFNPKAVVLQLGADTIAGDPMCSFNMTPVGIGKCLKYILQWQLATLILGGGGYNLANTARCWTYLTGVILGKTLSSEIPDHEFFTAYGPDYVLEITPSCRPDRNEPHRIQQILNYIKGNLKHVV
Description: Inhibition of human KDAC8 at 30 uM after 60 mins by fluorescence assay relative to control.

Assay [4] deals with T4, Protein deacetylase HDAC6 (Homo sapiens) (UniProt Q9UBN7).
T4 sequence (whole entry): T1 sequence (Q9UBN7 whole entry)
Conditions: at 30 µM.
Description: Inhibition of human KDAC6 at 30 uM using FITC-labeled histone H4 acetylated peptide as substrate after 60 mins by fluorescence assay relative to control

The next assay concerns the target T5, Histone deacetylase 8 (Homo sapiens, UniProt Q9BY41).
T5 sequence (Q9BY41 whole entry): T3 sequence (whole entry)
As to the kind of experiment: Inhibition of human KDAC8 after 60 mins by fluorescence assay.

Assay [5] has as its target T6, Histone deacetylase 3 (Homo sapiens, UniProt O15379). Description: Inhibition of human KDAC3 using FITC-labeled p53 acetylated peptide as substrate after 60 mins by fluorescence assay.
Assay [6] deals with T2, Histone deacetylase 1. Description: Inhibition of human KDAC1 at 30 uM using substrate A after 60 mins by fluorescence assay relative to control.
The target of assay [7] is T6, Histone deacetylase 3. As to the kind of experiment: Inhibition of human KDAC3 at 30 uM using FITC-labeled p53 acetylated peptide as substrate after 60 mins by fluorescence assay relative to control.

T6 sequence (O15379 whole entry): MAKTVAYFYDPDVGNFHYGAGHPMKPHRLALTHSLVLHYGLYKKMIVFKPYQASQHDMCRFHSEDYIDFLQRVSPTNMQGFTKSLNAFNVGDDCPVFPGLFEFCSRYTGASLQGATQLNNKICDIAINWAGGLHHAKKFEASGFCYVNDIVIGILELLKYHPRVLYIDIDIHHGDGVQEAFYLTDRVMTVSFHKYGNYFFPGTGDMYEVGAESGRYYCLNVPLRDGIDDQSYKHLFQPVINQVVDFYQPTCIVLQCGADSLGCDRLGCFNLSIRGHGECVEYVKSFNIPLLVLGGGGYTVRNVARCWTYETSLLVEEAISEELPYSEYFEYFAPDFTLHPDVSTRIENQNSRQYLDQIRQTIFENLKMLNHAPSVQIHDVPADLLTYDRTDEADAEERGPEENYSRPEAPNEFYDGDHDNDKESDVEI
T2 sequence (Q13547 whole entry): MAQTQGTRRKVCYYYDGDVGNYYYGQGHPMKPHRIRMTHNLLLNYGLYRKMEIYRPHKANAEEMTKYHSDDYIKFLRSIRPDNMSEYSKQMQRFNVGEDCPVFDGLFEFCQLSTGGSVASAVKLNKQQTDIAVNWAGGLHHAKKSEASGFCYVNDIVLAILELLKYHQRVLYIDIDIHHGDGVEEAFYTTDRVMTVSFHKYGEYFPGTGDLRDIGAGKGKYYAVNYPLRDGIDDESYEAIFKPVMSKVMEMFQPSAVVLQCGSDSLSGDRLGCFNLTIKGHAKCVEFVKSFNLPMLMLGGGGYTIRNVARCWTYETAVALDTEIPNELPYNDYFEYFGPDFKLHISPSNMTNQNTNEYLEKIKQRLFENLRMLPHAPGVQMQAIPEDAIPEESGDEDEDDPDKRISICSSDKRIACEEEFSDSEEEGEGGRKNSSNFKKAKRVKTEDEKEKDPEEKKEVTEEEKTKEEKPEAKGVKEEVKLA

The term pIC50 denotes the negative decadic logarithm of the IC50, by convention in mol/L. A lower pIC50 goes with a large IC50. The term inhibition denotes the share of the control response that was lost under treatment. A high value points to strong suppression. Turning to `CC(C)C[C@@H]1N=C(c2ccccc2)c2ccccc2N(CCCCC(=O)O)C1=O`, the pIC50 (in assay [1]; on Histone deacetylase 1 [2]; against Histone deacetylase 8; at Histone deacetylase 3 [5]) was less than 4.52 throughout. In addition, the inhibition in assay [3] was 7%; in assay [4], 0%; against Histone deacetylase 1 [6], 3.1%; on Histone deacetylase 3 [7] it was 0%.
`CC(C)[C@@H]1N=C(c2ccccc2)c2ccccc2NC1=O`: the pIC50 (in assay [1]; at Histone deacetylase 1 [2]; against Histone deacetylase 8; on Histone deacetylase 3 [5]) was less than 4.52 throughout. Also, the inhibition in assay [3] was 0%; in assay [4], 3.25%; on Histone deacetylase 1 [6], 0%; on Histone deacetylase 3 [7] it was 0%.
Take `CC(C)[C@@H]1N=C(c2ccccc2)c2ccccc2N(CCCCC(=O)NO)C1=O`: the pIC50 in assay [1] was 5.87; on Histone deacetylase 1 [2], 5.28; against Histone deacetylase 8, 4.70; against Histone deacetylase 3 [5], 6.22. The inhibition stood at 59.4% in assay [3], 95.5% in assay [4], 81.4% on Histone deacetylase 1 [6] and 97% against Histone deacetylase 3 [7].
Regarding `CC(C)(C)OC(=O)C[C@@H]1N=C(c2ccccc2)c2ccccc2N(CCCCC(=O)O)C1=O`, the pIC50 (in assay [1]; against Histone deacetylase 1 [2]; on Histone deacetylase 8; at Histone deacetylase 3 [5]) was less than 4.52 each time. Moreover, the inhibition in assay [3] stood at 0%; in assay [4], 0%; on Histone deacetylase 1 [6], 0%; on Histone deacetylase 3 [7] it was 2.62%.
With `O=C(O)C[C@@H]1N=C(c2ccccc2)c2ccccc2N(CCCCC(=O)NO)C1=O`, the negative-log IC50 (pIC50) in assay [1] was 4.70; on Histone deacetylase 1 [2], less than 4.52; against Histone deacetylase 8, less than 4.52; on Histone deacetylase 3 [5] it was 4.90. The inhibition in assay [3] amounted to 39.4%; in assay [4] it was 57.8%; on Histone deacetylase 1 [6], 47.9%; against Histone deacetylase 3 [7], 75.5%.
As to `CC(C)C[C@@H]1N=C(c2ccccc2)c2ccccc2N(CCCCC(=O)NO)C1=O`, the negative logarithm of the IC50 (pIC50) was 5.63 in assay [1], 5.23 on Histone deacetylase 1 [2], less than 4.52 on Histone deacetylase 8 and 6.24 on Histone deacetylase 3 [5]. Besides, the inhibition in assay [3] stood at 45.2%; in assay [4] it was 91.6%; against Histone deacetylase 1 [6], 80.5%; at Histone deacetylase 3 [7], 98.5%.
On to `COC(=O)CCCCN1C(=O)[C@H](Cc2cc3ccccc3n2C(=O)OC(C)(C)C)N=C(c2ccccc2)c2ccccc21`, for which the pIC50 (in assay [1]; on Histone deacetylase 1 [2]; against Histone deacetylase 8; against Histone deacetylase 3 [5]) was less than 4.52 each time. In addition, the inhibition turned out to be 0% in assay [3], 0% in assay [4], 1.64% against Histone deacetylase 1 [6] and 0% against Histone deacetylase 3 [7].
With `Cc1c(C)c(S(=O)(=O)NC(=N)NCCC[C@@H]2N=C(c3ccccc3)c3ccccc3NC2=O)c(C)c2c1OC(C)(C)C2`, the pIC50 (in assay [1]; on Histone deacetylase 1 [2]; at Histone deacetylase 8; against Histone deacetylase 3 [5]) was less than 4.52 in each case. The inhibition in assay [3] came to 7.99%; in assay [4], 0%; at Histone deacetylase 1 [6], 8%; on Histone deacetylase 3 [7], 0.47%.
For the molecule `CC(C)(C)SC[C@H]1N=C(c2ccccc2)c2ccccc2N(CCCCC(=O)O)C1=O`, the negative-log IC50 (pIC50) (in assay [1]; against Histone deacetylase 1 [2]; at Histone deacetylase 8; at Histone deacetylase 3 [5]) was less than 4.52 in each case. For the same molecule, the inhibition came to 8.31% in assay [3], 2.08% in assay [4], 12.1% against Histone deacetylase 1 [6] and 0% on Histone deacetylase 3 [7].
As to `C[C@@H](O)[C@@H]1N=C(c2ccccc2)c2ccccc2N(CCCCC(=O)NO)C1=O`, the pIC50 in assay [1] is 4.94; at Histone deacetylase 1 [2] it was 4.95; at Histone deacetylase 8 it was less than 4.52; against Histone deacetylase 3 [5], 5.74. Moreover, the inhibition in assay [3] stood at 40.3%; in assay [4] it was 70.1%; on Histone deacetylase 1 [6], 66.5%; at Histone deacetylase 3 [7], 94.2%.
